Our source for the IC50 values is patent US20240174690A1, “ANNULATED 2-AMINO-3-CYANO THIOPHENES AND DERIVATIVES FOR THE TREATMENT OF CANCER” (BOEHRINGER INGELHEIM INTERNATIONAL GMBH, priority 2021, published 2024).

Each structure is given as a SMILES string. Like-named read-outs stand apart in the source and are kept apart here.

In one assay the test system is AsPC-1 cells. Description: AsPC-1 CTG proliferation assay (120 h) (pancreatic cancer, G12D). The assay is classed as cell-based. A digest of the protocol:
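AsPC-1 cells (KRAS G12D), 2000/well in RPMI with 10% FCS, seeded overnight, then treated with compound for 120 h at 37 °C. Viability by CellTiter-Glo luminescence as percent of DMSO control. IC50 from a four-parameter non-linear fit.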

The target in another assay is KRAS (G12C)::SOS1 (Homo sapiens (Human), UniProt P01116, C118S/C51S/C80L/G12C). As to the kind of experiment: KRAS::SOS1 AlphaScreen binding assay, KRAS G12C. In short, it runs like this: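 AlphaScreen measurement of compound disruption of biotinylated, GDP-loaded KRAS 1-169 (10 nM; G12C 7.5 nM) binding to GST-SOS1 564-1049 (5 nM with G12D/G12C, 10 nM otherwise), with 10 μM GDP in PBS/0.1% BSA/0.05% Tween 20. Timing was 30 min compound preincubation, then 60 min with beads at room temperature; top concentration 100 μM, 4-parameter IC50.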
(In Alpha technology, singlet oxygen from a donor bead excites a nearby acceptor bead.)

Assay [1] deals with KRAS G12V-dependent Ba/F3 cells. As to the kind of experiment: Ba/F3 proliferation assay, KRAS G12V.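 Further: proliferation IC50 in KRAS G12V-dependent Ba/F3 cells read by AlamarBlue.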 The class given is cell-based. Particulars: AlamarBlue. A digest of the protocol:
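Viability is measured as AlamarBlue fluorescence in Ba/F3 cells that depend on a transduced mutant KRAS isoform for growth without IL-3. Each treatment is run in technical duplicate, and dose-response curves are fitted.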

KRAS (G12C)::SOS1, sequence (P01116 other isoform, or with tags, fused parts or gaps G12C/C51S/C80L/C118S): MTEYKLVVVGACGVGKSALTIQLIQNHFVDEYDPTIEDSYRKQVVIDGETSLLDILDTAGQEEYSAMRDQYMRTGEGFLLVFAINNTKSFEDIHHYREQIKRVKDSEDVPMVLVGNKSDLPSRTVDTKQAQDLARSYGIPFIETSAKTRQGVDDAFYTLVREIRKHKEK

Consider `C[C@H](Oc1cc(-c2ccn(C)n2)nc(-c2onc3c2CCC[C@@]32CCCc3sc(N)c(C#N)c32)n1)[C@@H]1CCCN1C` [I-21], for which the figures for the IC50 (with AsPC-1 cells; at KRAS (G12C)::SOS1; in assay [1] (72 h)) were 2980 nM, 2 nM and 6 nM, respectively.
With `CO[C@H]1CCN(C)[C@@H]1[C@H](C)Oc1cc(N2CCNC3(CC3)C2)nc(-c2onc3c2CCC[C@@]32CCCc3sc(N)c(C#N)c32)n1` [I-49], the IC50 with AsPC-1 cells (Homo sapiens, ASPC1) stood at 20 nM; on KRAS (G12C)::SOS1 it was 3 nM; in assay [1] (Mus musculus, BaF3, 72 h) it was 184 nM.
In the case of `C[C@H](Oc1cc(N2CCN(C)C3(COC3)C2)nc(-c2noc3c2CCC[C@@]32CCCc3sc(N)c(C#N)c32)n1)[C@@H]1CCCN1C` [II-13], the IC50 amounted to 251 nM with AsPC-1 cells (Homo sapiens, ASPC1); 2 nM at KRAS (G12C)::SOS1; 247 nM in assay [1] (Mus musculus, BaF3, 72 h).
For `C[C@H](Oc1cc(N2CCNC3(CC3)C2)nc(-c2onc3c2CCC[C@@]32CCCc3sc(N)c(C#N)c32)n1)[C@@H]1C[C@@H](F)CN1C` [I-45], in that order: 32 nM, 4 nM and 453 nM.
On the same counts, the results for `CO[C@@H]1C[C@@H]([C@H](C)Oc2cc(N3CCN(C)C4(CC4)C3)nc(-c3onc4c3CCC[C@@]43CCCc4sc(N)c(C#N)c43)n2)N(C)C1` [I-50] are 115 nM, 5 nM and 811 nM.
On the same counts, the results for `C[C@H](Oc1cc(N2CCNC3(CCC3)C2)nc(-c2onc3c2CCC[C@@]32CCCc3sc(N)c(C#N)c32)n1)[C@@H]1CCCN1C` [I-3] are 273 nM, 3 nM and 351 nM.
For `C[C@H](Oc1cc(-n2ccc(C(=O)N3CCCC3)n2)nc(-c2noc3c2CCC[C@@]32CCCc3sc(N)c(C#N)c32)n1)[C@@H]1CCCN1C` [II-19], the IC50 in the assay with AsPC-1 cells (Homo sapiens, ASPC1) worked out at 870 nM; at KRAS (G12C)::SOS1 it was 1 nM; in assay [1] (Mus musculus, BaF3, 72 h) it was 3 nM.
`C[C@H](Oc1cc(-n2ccnc2)nc(-c2onc3c2CCC[C@@]32CCCc3sc(N)c(C#N)c32)n1)[C@@H]1CCCN1C` [I-20]: the 50% inhibitory concentration (IC50) in the assay on AsPC-1 cells (Homo sapiens, ASPC1) was determined as 5420 nM; at KRAS (G12C)::SOS1, 2 nM; in assay [1] (Mus musculus, BaF3, 72 h), 10 nM.
For `CCOC(=O)c1ccn(-c2cc(O[C@@H](C)[C@@H]3CCCN3C)nc(-c3noc4c3CCC[C@@]43CCCc4sc(N)c(C#N)c43)n2)n1` [II-23], in that order: 1640 nM, 1 nM and 4 nM.
As to `C[C@H]1CN(C)CCCN1c1cc(N2CCN(C)CC2)nc(-c2noc3c2CCC[C@@]32CCCc3sc(N)c(C#N)c32)n1` [II-30], the IC50 in the assay on AsPC-1 cells (Homo sapiens, ASPC1) was 2380 nM; on KRAS (G12C)::SOS1 it was 19 nM.
On to `C[C@H](Oc1cc(Cl)nc(-c2onc3c2CCC[C@@]32CCCc3sc(N)c(C#N)c32)n1)[C@@H]1CCCN1C` [I-1], for which the IC50 was 5900 nM in the assay with AsPC-1 cells (Homo sapiens, ASPC1); 2 nM at KRAS (G12C)::SOS1; 43 nM in assay [1] (Mus musculus, BaF3, 72 h).
For `CO[C@H]1CCN(C)[C@@H]1[C@H](C)Oc1cc(-n2ccc(C(=O)N[C@H]3CCOC3)n2)nc(-c2onc3c2CCC[C@@]32CCCc3sc(N)c(C#N)c32)n1` [I-54], in that order: 266 nM, 1 nM and 1 nM.
On the same counts, the results for `C[C@H](Oc1cc(N2CC[C@H](N3CCCC3)C2)nc(-c2noc3c2CCC[C@@]32CCCc3sc(N)c(C#N)c32)n1)[C@@H]1CCCN1C` [II-14] are 245 nM, 4 nM and 771 nM.
For the compound `C[C@H](Oc1cc(N2C[C@H](C)N(C)[C@@H](C)C2)nc(-c2onc3c2CCC[C@@]32CCCc3sc(N)c(C#N)c32)n1)[C@@H]1CCCN1C` [I-43], the half-maximal inhibitory concentration (IC50) in the assay with AsPC-1 cells (Homo sapiens, ASPC1) came out at 1000 nM; at KRAS (G12C)::SOS1 it was 6 nM; in assay [1] (Mus musculus, BaF3, 72 h) it was 302 nM.
On the same counts, the results for `C[C@H](Oc1cc([C@@H]2CCN(C)C2)nc(-c2noc3c2CCC[C@@]32CCCc3sc(N)c(C#N)c32)n1)[C@@H]1CCCN1C` [II-37] are 1450 nM, 3 nM and 177 nM.
For `C[C@H](Oc1cc(N2CCNC3(CCCC3)C2)nc(-c2noc3c2CCC[C@@]32CCCc3sc(N)c(C#N)c32)n1)[C@@H]1CCCN1C` [II-41], the IC50 was 269 nM in the assay on AsPC-1 cells (Homo sapiens, ASPC1); 9 nM on KRAS (G12C)::SOS1; 980 nM in assay [1] (Mus musculus, BaF3, 72 h).
On the same counts, the results for `C[C@H](Oc1cc(-n2ccc(C(=O)NC3COC3)n2)nc(-c2noc3c2CCC[C@@]32CCCc3sc(N)c(C#N)c32)n1)[C@@H]1CCCN1C` [II-25] are 891 nM, 1 nM and 4 nM.
For `C[C@H](Oc1cc(-n2ccc(C(N)=O)n2)nc(-c2noc3c2CCC[C@@]32CCCc3sc(N)c(C#N)c32)n1)[C@@H]1CCCN1C` [II-21], in that order: 694 nM, 2 nM and 3 nM.
As for `C[C@H](Oc1cc(N2CC3CCC(C2)N3)nc(-c2noc3c2CCC[C@@]32CCCc3sc(N)c(C#N)c32)n1)[C@@H]1CCCN1C` [II-34], the IC50 in the assay on AsPC-1 cells (Homo sapiens, ASPC1) came out at 1420 nM; on KRAS (G12C)::SOS1, 3 nM; in assay [1] (Mus musculus, BaF3, 72 h) it was 681 nM.
On the same counts, the results for `C[C@H](Oc1cc(N2CCNC(C)(C)C2)nc(-c2noc3c2CCC[C@@]32CCCc3sc(N)c(C#N)c32)n1)[C@@H]1CCCN1C` [II-32] are 385 nM, 2 nM and 1220 nM.
`C[C@H](Oc1cc(-c2ccn([C@H]3CCCOC3)n2)nc(-c2noc3c2CCC[C@@]32CCCc3sc(N)c(C#N)c32)n1)[C@@H]1CCCN1C` [II-42]: the IC50 with AsPC-1 cells (Homo sapiens, ASPC1) is 1890 nM; on KRAS (G12C)::SOS1, 2 nM; in assay [1] (Mus musculus, BaF3, 72 h), 5 nM.
For `C[C@H](Oc1cc(-n2nccn2)nc(-c2onc3c2CCC[C@@]32CCCc3sc(N)c(C#N)c32)n1)[C@@H]1CCCN1C` [I-29], in that order: 10300 nM, 3 nM and 15 nM.
On the same counts, the results for `C[C@H](Oc1cc(-c2ccn(CC(C)(C)O)n2)nc(-c2onc3c2CCC[C@@]32CCCc3sc(N)c(C#N)c32)n1)[C@@H]1CCCN1C` [I-26] are 2240 nM, 2 nM and 13 nM.
For `C[C@H](Oc1cc(-c2cnn(C)n2)nc(-c2noc3c2CCC[C@@]32CCCc3sc(N)c(C#N)c32)n1)[C@@H]1C[C@@H](F)CN1C` [II-28], in that order: 5070 nM, 7 nM and 27 nM.
Turning to `CO[C@@H]1C[C@@H]([C@H](C)Oc2cc(-c3ccn(C)n3)nc(-c3onc4c3CCC[C@@]43CCCc4sc(N)c(C#N)c43)n2)N(C)C1` [I-23], the IC50 is 8160 nM with AsPC-1 cells (Homo sapiens, ASPC1); 3 nM on KRAS (G12C)::SOS1; 7 nM in assay [1] (Mus musculus, BaF3, 72 h).
On the same counts, the results for `C[C@H](Oc1cc(N2C[C@@H](N(C)C)[C@@H](O)C2)nc(-c2noc3c2CCC[C@@]32CCCc3sc(N)c(C#N)c32)n1)[C@@H]1CCCN1C` [II-10] are 811 nM, 7 nM and 957 nM.
As to `C[C@H](Oc1cc(N2CCN(C)CC2)nc(-c2noc3c2CCC[C@@]32CCCc3sc(N)c(C#N)c32)n1)[C@@H]1CCCN1[C@@H]1CCOC1` [II-39], the IC50 with AsPC-1 cells (Homo sapiens, ASPC1) stood at 1760 nM; at KRAS (G12C)::SOS1, 6 nM.
At KRAS (G12C)::SOS1, `C[C@H](Oc1nc(-c2onc3c2CCC[C@@]32CCCc3sc(N)c(C#N)c32)cc(N2CCNC3(CC3)C2)n1)[C@@H]1CCCN1C` [I-2] displayed a concentration for half-maximal inhibition (IC50) of 45 nM.
As for `C[C@H](Oc1cc(-n2ccsc2=O)nc(-c2noc3c2CCC[C@@]32CCCc3sc(N)c(C#N)c32)n1)[C@@H]1CCCN1C` [II-135], the IC50 with AsPC-1 cells (Homo sapiens, ASPC1) worked out at 1390 nM; in assay [1] (Mus musculus, BaF3, 72 h) it was 4 nM.
Consider `C[C@H](Oc1cc(N2CCNCC2)nc(-c2noc3c2CCC[C@@]32CCCc3sc(N)c(C#N)c32)n1)[C@@H]1CCCN1C` [II-45], for which the IC50 in the assay on AsPC-1 cells (Homo sapiens, ASPC1) worked out at 2310 nM; on KRAS (G12C)::SOS1, 3 nM; in assay [1] (Mus musculus, BaF3, 72 h), 642 nM.
For `Cc1nc(-c2cc(O[C@@H](C)[C@@H]3CCCN3C)nc(-c3onc4c3CCC[C@@]43CCCc4sc(N)c(C#N)c43)n2)cs1` [I-24], in that order: 3450 nM, 2 nM and 5 nM.
In the case of `C[C@H](Oc1cc([C@@H]2CCOC2)nc(-c2onc3c2CCC[C@@]32CCCc3sc(N)c(C#N)c32)n1)[C@@H]1CCCN1C` [I-22], the IC50 came out at 650 nM in the assay with AsPC-1 cells (Homo sapiens, ASPC1); 2 nM at KRAS (G12C)::SOS1; 9 nM in assay [1] (Mus musculus, BaF3, 72 h).
For `C[C@H](Oc1cc(N2C[C@H]3CN(C)C[C@H]3C2)nc(-c2noc3c2CCC[C@@]32CCCc3sc(N)c(C#N)c32)n1)[C@@H]1CCCN1C` [II-33], in that order: 1410 nM, 8 nM and 657 nM.
Turning to `C[C@H]1CN(C)CCCN1c1nc(-c2onc3c2CCC[C@@]32CCCc3sc(N)c(C#N)c32)cc(N2CCN(C)C3(CC3)C2)n1` [I-42], the IC50 at KRAS (G12C)::SOS1 came to 606 nM.
Turning to `C[C@H](O)Cn1ccc(-c2cc(O[C@@H](C)[C@@H]3CCCN3C)nc(-c3onc4c3CCC[C@@]43CCCc4sc(N)c(C#N)c43)n2)n1` [I-31], the IC50 on KRAS (G12C)::SOS1 was 2 nM; in assay [1] (Mus musculus, BaF3, 72 h), 9 nM.
For the compound `C[C@H](Oc1nc(-c2noc3c2CCC[C@@]32CCCc3sc(N)c(C#N)c32)cc(N2C[C@H](C)N[C@@H](C)C2)n1)[C@@H]1CCCN1C` [II-46], the IC50 with AsPC-1 cells (Homo sapiens, ASPC1) amounted to 2740 nM; on KRAS (G12C)::SOS1, 37 nM.
As for `C[C@H](Oc1nc(-c2onc3c2CCC[C@@]32CCCc3sc(N)c(C#N)c32)cc(N2CCN(C)C3(CC3)C2)n1)[C@@H]1CCCN1C` [I-40], the half-inhibitory concentration (IC50) at KRAS (G12C)::SOS1 came to 88 nM.

Usually IC50 stands for the concentration that gives 50% inhibition. A high value points to weaker potency in that assay.
